{"source": "patent US20190269715A1", "about": "“COMPOSITIONS AND METHOD OF USE OF A-TYPE PROCYANIDINS” (MARS, INCORPORATED, priority 2004, published 2019)", "key": {"[1]": {"system": "CD11b on monocytes and neutrophils", "experiment": "Leukocyte activation (CD11b expression) by flow cytometry", "type": "cell-based, human", "conditions": "FIG. 3; 10 min; collagen 0.125-0.5 μg/ml; A1 dimer 0.3 mM, aspirin 100 μM", "method": "Platelet-leukocyte conjugate formation was measured in the same stirred samples used to measure platelet aggregation. Sub samples were taken 4 min or 10 min following the addition of agonist and transferred into the appropriate antibody or antibody mixture. These were then incubated in the dark at room temperature for not less than 20 min. Following red cell lysis and a washing procedure the cell suspensions were applied to either the FACScan or the LSRII flow cytometer. Leukocytes were identified by logical gating from dot plots of forward scatter (cell size) and side scatter (cell granularity) profiles acquired with linear amplification. […] Fluorescence parameters were acquired with logarithmic amplification. Platelet monocyte (P/M) and platelet neutrophil (P/N) conjugates were quantified as median CD42a (FITC) fluorescence of the monocyte (P/M mf) or neutrophil population (PIN mf). Leukocyte activation was measured by CD11b (AlexaFluor647) expression (CD11b-M for monocytes and CD11b-N for neutrophils). Platelet activation (P-selectin expression) was measured by CD62P (PE) positivity of the platelets associated with leukocytes as (CD62P-M on P/M and CD62P-N on PIN). […]\nBlood was obtained from three different volunteers and the platelet aggregation (4 min) and platelet/leukocyte conjugate formation (10 min) was measured in response to collagen (0, 0.125, 0.25 and 0.5 μg/ml). […]"}, "[2]": {"system": "platelet/monocyte and platelet/neutrophil conjugates in whole blood", "experiment": "Platelet-leukocyte conjugate formation (P/M, P/N) by flow cytometry", "type": "cell-based, human", "conditions": "FIG. 2; 10 min; collagen 0.125-0.5 μg/ml; ASA 100 μM", "quoted_text": "Platelet aggregation of A1 dimer [[MUT]] was measured using a platelet counting technique, and formation of platelet/monocyte conjugates (P/M) and platelet/neutrophil conjugates (PIN) by flow cytometry. In later experiments the activation state of platelets associated with leukocytes (CD62P) was also measured and also the activation state of the leukocytes themselves (CD11b). Blood was obtained from healthy volunteers, who denied taking any aspirin or NSAIDS in the previous 10 days. This blood was dispensed into graduated polystyrene tubes that contained hirudin (final concentration 50 μg/ml) and a small volume of the flavanol under investigation or ethanol as control. The final concentration of ethanol in the blood was always 0.3%. […] Platelet-leukocyte conjugate formation was measured in the same stirred samples used to measure platelet aggregation. […] Fluorescence parameters were acquired with logarithmic amplification. Platelet monocyte (P/M) and platelet neutrophil (P/N) conjugates were quantified as median CD42a (FITC) fluorescence of the monocyte (P/M mf) or neutrophil population (PIN mf). Leukocyte activation was measured by CD11b (AlexaFluor647) expression (CD11b-M for monocytes and CD11b-N for neutrophils). Platelet activation (P-selectin expression) was measured by CD62P (PE) positivity of the platelets associated with leukocytes as (CD62P-M on P/M and CD62P-N on PIN). […]"}, "platelets in whole blood": {"system": "platelets in whole blood", "experiment": "Collagen-induced platelet aggregation in whole blood (platelet counting)", "type": "cell-based, human", "conditions": "collagen 0.125-0.5 μg/ml, A1 dimer 0.3 mM; for collagen-induced platelet aggregation: FIG. 2, 4 and 10 min, ASA 100 μM", "method": "Platelet aggregation of A1 dimer [A1D] was measured using a platelet counting technique, and formation of platelet/monocyte conjugates (P/M) and platelet/neutrophil conjugates (PIN) by flow cytometry. In later experiments the activation state of platelets associated with leukocytes (CD62P) was also measured and also the activation state of the leukocytes themselves (CD11b).\nA1 dimer [A1D] was dissolved in ethanol. Once in solution, further dilution with saline was possible. Hirudin, (Revasc™) was obtained from Novartis (Basel, Switzerland) and was stored as a 5 mg/ml solution in saline in a glass vial at −20° C. Collagen (Nycomed) was from Axis Shield Diagnostics (Dundee, UK). Concentrations were prepared from the stock solution (1 mg/ml) using the isotonic glucose buffer supplied by the manufacturer. Aspirin (acetyl salicylic acid-ASA), adenosine diphosphate (ADP), platelet activating factor (PAF), arachidonic acid (AA) and epinephrine were from Sigma. Fixing solution consisted of 140 mM NaCl containing 0.16% w/v formaldehyde, 4.6 mM Na2EDTA, 4.5 mM Na2HP04 and 1.6 mM KH2PO4, pH 7.4.\nBlood samples were studied using the Multi-Sample Agitator (MSA) produced by the Medical Engineering Unit (University of Nottingham). The MSA is used to maintain blood samples at 37° C. and to agitate small samples of blood at a stir speed of 1,000 rpm as required. […]\nFollowing the 30 min pre-incubation, aliquots of blood (480 μl) were dispensed into small polystyrene tubes each containing a stir bar and stirred for 2 min in the MSA. […] The platelet count in the fixed samples was determined using the UltraFlo-100 Whole Blood Platelet Counter. Platelet aggregation was calculated as the percentage loss of single platelets with reference to the platelet count of the EDTA sample.\nBlood was obtained from three different volunteers and the platelet aggregation and platelet/leukocyte conjugate formation was measured in response to collagen (0, 0.125, 0.25 and 0.5 μg/ml). […] Aggregation was measured at 4 and 10 min following agonist addition and platelet/leukocyte conjugate formation only at 10 min. […]"}, "[3]": {"conditions": "experimental animal studies; cited from earlier work"}, "[4]": {"system": "human umbilical vein endothelial cell (HUVEC)", "experiment": "NO production (NOx) in serum-free HUVEC culture", "type": "cell-based", "method": "The compounds obtained as described in Example 1, were investigated for their effect on nitric oxide (NO) production and vasorelaxation using serum-free human umbilical vein endothelial cell (HUVEC) culture system in vitro and rabbit aortic ring model ex vivo, respectively. NO production by endothelial cells and relaxation of pre-constricted aortic rings are two main markers for evaluating cardiovascular effects of test compounds.\nHUVECs obtained from a single donor were cultured in serum free, low protein (0.5 g/l), antibiotic-free cell culture medium supplemented with essential growth factors, nutrients and minerals. […] The cell culture medium was substituted with apo-transferrin, superoxide dismutase, and catalase to exclude secondary effects of test compounds involving their auto-oxidation mediated hydrogen peroxide formation.\n(§1) Test compounds were evaluated with respect to their potential to acutely (2 hours) and chronically (5 doses given in a 24 h period) modulate NO production. Positive controls (acetylcholine and/or histamine) and negative control L-NNMA (NO synthase inhibitor) were included in all experiments. Cell counts and total protein were used to assess intra-assay variation. Potential toxic effects of tested compounds were also monitored (MTT reduction was measured).\nNO production was evaluated by measuring the total amount of all major nitric oxide end products (NOx, including nitrate, nitrite, nitrosothiols) present in the cell culture medium. […] The amount of NO released from the culture medium was subsequently evaluated by measuring the chemiluminescence emitted during the stoichiometrical reaction between ozone and NO using NO Analyzer (Sievers Instruments, Inc. Boulder, Colo.).\nThe data presented herein were obtained from three experiments and were expressed as the concentration of NO present (in μmol/l) (as NOx) in the cell culture medium+/−standard deviation (SD). The data were corrected for the NOx intrinsically present in the fully supplemented cell culture medium and normalized with respect ot the volume of media from which the ample was drawn. Data were analyzed using Student's t-test with a 95% level of confidence. P values equal to or less than 0.005 were defined as statistically significant.\n(§2) For the acute effect test, HUVECs were incubated with a single dose of A2 dimer and A-type trimer for 2 and 24 hours at concentrations of 100 nM, 1 μM, and 10 μM at 37 C and 5% CO2. No effect was observed on NO production after 2 hours.\nFor the chronic effect test, HUVECs were incubated with 5 subsequent doses of test compounds, each for 24 hours. After each 24 hour treatment, culture medium was replaced. A2 dimer and A-type trimer were tested."}, "rabbit aortic rings": {"system": "rabbit aortic rings", "experiment": "Ex vivo endothelium-dependent relaxation of NE pre-constricted rabbit aortic rings", "conditions": "for relaxation in pre-contracted aortic rings, dose dependence: FIGS. 1A-1C, 10^-9 to 10^-4 M cumulative; for vasorelaxation, percent relaxation of NE constricted rings: concentration 10^−4M, +/−SE; for relaxant potency compared with positive control acetylcholine: significant at p=0.005 for A1 dimer", "method": "Effect of A-type procyanidins on endothelium-dependent relaxation was tested in an ex vivo experiment performed as previously described by Karim et al., J. Nutrl Suppl., 130 (8S): […]-[…] (2000), the relevant portions of which are hereby incorporated herein by reference. The advantage of using this method is that it assesses functional cardiovascular end points. […] In summary, rabbit aortic rings were obtained from male New Zealand White rabbits. Following isolation, the rings were mounted in oxygenated Kreb's buffer, and pre-constricted with NE (10^-6 M). When the tension had reached a steady state, cumulative concentrations of the test compounds were applied (10^-9 to 10^-4 M). A positive control acetylcholine (10^-6M) and a negative control L-NAME were included in the experiment. Use of L-NAME, which is a NO synthase (NOS) inhibitor, allows for differentiating between endothelium dependent and endothelium independent relaxation events. Denuding of aortic rings represent a similar control. 400 U/mL of catalase was added into the aortic bath prior to the addition of each of the test compounds to ensure that the observed effects are not caused by hydrogen peroxide (H202) generation in the culture medium. The relaxation response was measured as a function of the decrease in the tension (g) exerted by the aortic rings over time. Data obtained were expressed as a percent relaxation of the norepinephrine (NE) constricted rings. The same statistical approach as described above was used. Dose response curves were obtained by plotting the average percent relaxation (+/-SE) against the concentrations used."}, "HUVECs": {"system": "HUVECs", "experiment": "MTT reduction, toxic effects on HUVECs", "type": "cell-based, human", "conditions": "acute effect test", "method": "as §1, §2"}, "[5]": {"target": "Leukemia virus reverse transcriptase (Moloney murine leukemia virus, UniProt P03355)", "conditions": "cited from earlier work"}, "[6]": {"conditions": "acute test, single dose, after 2 hours, 100 nM, 1 μM and 10 μM"}, "[7]": {"conditions": "acute test, single dose, after 24 hours, 1 μM"}, "[8]": {"conditions": "acute test, single dose, after 24 hours, 10 μM, not statistically significant"}, "[9]": {"conditions": "typical response of positive control"}}}
{"smiles": "CC(=O)Oc1ccccc1C(=O)O", "note": "[ASA, acetyl salicylic acid, reference compound]", "values": [{"measurement": "leukocyte activation (CD11b)", "setting": "[1]", "result": "no effect"}, {"measurement": "platelet/monocyte conjugates (P/M)", "setting": "[2]", "result": "effectively inhibited"}, {"measurement": "platelet/neutrophil conjugates (P/N)", "setting": "[2]", "result": "effectively inhibited"}, {"measurement": "collagen-induced platelet aggregation", "setting": "platelets in whole blood", "result": "effectively inhibited"}]}
{"smiles": "O=c1c(O)c(-c2ccc(O)c(O)c2)oc2cc(O)cc(O)c12", "note": "[quercetin]", "values": [{"measurement": "anticarcinogenic activity", "setting": "[3]", "result": "anticarcinogenic activity"}]}
{"smiles": "Oc1cc(O)c2c(c1)O[C@@]1(c3ccc(O)c(O)c3)Oc3cc(O)c4c(c3[C@@H]2[C@H]1O)O[C@H](c1ccc(O)c(O)c1)[C@@H](O)C4c1c(O)cc(O)c2c1CC(c1ccc(O)c(O)c1)C(O)C2", "note": "(some centres unmarked) [A-type trimer]", "values": [{"measurement": "effect on NO production", "setting": "[4]; [6]", "result": "No effect"}, {"measurement": "effect on NO production", "setting": "[4]; [7]", "result": "no effect"}, {"measurement": "effect on NO production", "setting": "[4]; [8]", "result": "increased NO production above the control level"}, {"measurement": "effect on NO production", "setting": "[4]; chronic test, 5 subsequent doses, each for 24 hours, p=0.041", "result": "statistically significant increase in NO production"}, {"measurement": "relaxation in pre-contracted aortic rings, dose dependence", "setting": "rabbit aortic rings", "result": "dose-dependent relaxation"}, {"measurement": "vasorelaxation, percent relaxation of NE constricted rings", "setting": "rabbit aortic rings", "result": "56.5+/−16.56%"}, {"measurement": "toxic effects, MTT assay", "setting": "HUVECs", "result": "did not have toxic effects"}]}
{"smiles": "Oc1cc(O)c2c(c1)O[C@H](c1ccc(O)c(O)c1)[C@@H](O)C2", "note": "[(+)-catechin]", "values": [{"measurement": "inhibition of Leukemia virus reverse transcriptase activity", "setting": "[5]", "result": "inhibit"}]}
{"smiles": "CC(=O)OCC[N+](C)(C)C", "note": "[Acetylcholine, acetylcholine, reference compound]", "values": [{"measurement": "concentration producing a relaxation response", "setting": "rabbit aortic rings; [9]", "result": "10^−7 M"}, {"measurement": "concentration reaching maximal relaxation", "setting": "rabbit aortic rings; [9]", "result": "10^−6 M"}]}
{"smiles": "Oc1cc(O)c2c(c1)O[C@@]1(c3ccc(O)c(O)c3)Oc3cc(O)c4c(c3[C@@H]2[C@H]1O)O[C@H](c1ccc(O)c(O)c1)[C@H](O)C4", "note": "[A2 dimer, epicatechin-(4β→8; 2β→O→7)-epicatechin]", "values": [{"measurement": "effect on NO production", "setting": "[4]; [6]", "result": "No effect"}, {"measurement": "effect on NO production", "setting": "[4]; [7]", "result": "no effect"}, {"measurement": "effect on NO production", "setting": "[4]; [8]", "result": "increased NO production above the control level"}, {"measurement": "relaxation in pre-contracted aortic rings, dose dependence", "setting": "rabbit aortic rings", "result": "dose-dependent relaxation"}, {"measurement": "vasorelaxation, percent relaxation of NE constricted rings", "setting": "rabbit aortic rings", "result": "85.00+/−2.91%"}, {"measurement": "relaxant potency compared with positive control acetylcholine", "setting": "rabbit aortic rings", "result": "more potent relaxants that the positive control"}, {"measurement": "toxic effects, MTT assay", "setting": "HUVECs", "result": "did not have toxic effects"}]}
{"smiles": "Oc1cc(O)c2c(c1)O[C@H](c1ccc(O)c(O)c1)[C@H](O)C2", "note": "[(−)-epicatechin]", "values": [{"measurement": "inhibition of Leukemia virus reverse transcriptase activity", "setting": "[5]", "result": "inhibit"}]}
{"smiles": "Oc1cc(O)c2c(c1)O[C@@]1(c3ccc(O)c(O)c3)Oc3cc(O)c4c(c3[C@@H]2[C@H]1O)O[C@H](c1ccc(O)c(O)c1)[C@@H](O)C4", "note": "[A1 dimer, epicatechin-(4β→8; 2β→O→7)-catechin]", "values": [{"measurement": "leukocyte activation (CD11b)", "setting": "[1]", "result": "did not inhibit"}, {"measurement": "relaxation in pre-contracted aortic rings, dose dependence", "setting": "rabbit aortic rings", "result": "dose-dependent relaxation"}, {"measurement": "vasorelaxation, percent relaxation of NE constricted rings", "setting": "rabbit aortic rings", "result": "93.20+/−3.46%"}, {"measurement": "relaxant potency compared with positive control acetylcholine", "setting": "rabbit aortic rings", "result": "more potent relaxants that the positive control"}, {"measurement": "collagen-induced platelet aggregation", "setting": "platelets in whole blood", "result": "inhibited"}, {"measurement": "collagen induced aggregation", "setting": "platelets in whole blood; FIG. 3, 4 min", "result": "inhibited"}]}
